Consider four compounds from patent US6372297B1, “Wood preservative oxathiazines” (Uniroyal Chemical Company, Inc., priority 1993, dated 2002).

Molecules are shown by their SMILES. Where two headings read alike, the source gives them in different places. A value given as a limit tells only on which side of the number the result lay.

The subject of data set [1] is Pseudomonas alcaligenes. Nature of the data set: Wood preservative efficacy against bacteria and yeasts, tryptose agar plates. Format: cell-based. Details: key: 0 = growth equal to control, 1 = inhibition, 2 = no growth. The settings on record: 100 ppm in tryptose agar. As for the experimental part:
Compositions were prepared by dissolving the compounds shown in Table 1 in 50% ethanol and further diluting with sterile distilled water. […] After cooling, the medium was inoculated with the bacteria listed below. After sufficient growth of the untreated cultures, the compounds were evaluated using the following rating system: 0=growth equal to control 1=inhibition of growth by the compound 2=no growth under the influence of the compound. In this Table, the higher numbers are the most preferred species. Pseudomonas alcaligenes (gram neg)

Data set [2] deals with Bacillus cereus mycoides. Format: cell-based. Set-up: scale not given here.
Data set [3] relates to Pseudomonas aeruginosa. Nature of the data set: Wood preservative efficacy against bacteria and yeasts, tryptose agar plates. Details: key: 0 = growth equal to control, 1 = growth inhibited, 2 = no growth. Conditions: 100 ppm in tryptose agar. Format: cell-based. As to the method:
Compositions were prepared by dissolving the compounds shown in Table 1 in 50% ethanol and further diluting with sterile distilled water. […] After cooling, the medium was inoculated with the bacteria listed below. After sufficient growth of the untreated cultures, the compounds were evaluated using the following rating system: 0=growth equal to control 1=inhibition of growth by the compound 2=no growth under the influence of the compound. In this Table, the higher numbers are the most preferred species. Pseudomonas aeruginosa (gram neg)

Data set [4] concerns Flavobacterium sp. The data set is described as above. Format: cell-based. Set-up: key: 0 = growth equal to control, 1 = growth inhibited, 2 = no growth. As for the experimental part: Compositions were prepared by dissolving the compounds shown in Table 1 in 50% ethanol and further diluting with sterile distilled water. […] After cooling, the medium was inoculated with the bacteria listed below. After sufficient growth of the untreated cultures, the compounds were evaluated using the following rating system: 0=growth equal to control 1=inhibition of growth by the compound 2=no growth under the influence of the compound. In this Table, the higher numbers are the most preferred species. Flavobacterium sp. (gram neg)

The test system of data set [5] is Streptomyces albus. The data set is described as above. Set-up: key: 0 = growth equal to control, 1 = inhibition, 2 = no growth. Type of data set: cell-based. As to the method:
Compositions were prepared by dissolving the compounds shown in Table 1 in 50% ethanol and further diluting with sterile distilled water. […] After cooling, the medium was inoculated with the bacteria listed below. After sufficient growth of the untreated cultures, the compounds were evaluated using the following rating system: 0=growth equal to control 1=inhibition of growth by the compound 2=no growth under the influence of the compound. In this Table, the higher numbers are the most preferred species. Streptomyces albus (gram pos)

For data set [6], the system named is Enterobacter aerogenes. The description is as above. Format: cell-based. Details: key: 0 = growth equal to control, 1 = inhibition, 2 = no growth. As for the experimental part:
Compositions were prepared by dissolving the compounds shown in Table 1 in 50% ethanol and further diluting with sterile distilled water. […] After cooling, the medium was inoculated with the bacteria listed below. After sufficient growth of the untreated cultures, the compounds were evaluated using the following rating system: 0=growth equal to control 1=inhibition of growth by the compound 2=no growth under the influence of the compound. In this Table, the higher numbers are the most preferred species. Enterobacter aerogenes (gram neg)

For data set [7], the system named is Escherichia coli. The data set is described as above. Format: cell-based. Set-up: key: 0 = growth equal to control, 1 = growth inhibited, 2 = no growth. As for the experimental part: Compositions were prepared by dissolving the compounds shown in Table 1 in 50% ethanol and further diluting with sterile distilled water. […] After cooling, the medium was inoculated with the bacteria listed below. After sufficient growth of the untreated cultures, the compounds were evaluated using the following rating system: 0=growth equal to control 1=inhibition of growth by the compound 2=no growth under the influence of the compound. In this Table, the higher numbers are the most preferred species. Escherichia coli ([…])

For data set [8], the system named is Coriolus versicolor. The data set is described as follows: Wood preservative efficacy against fungi, agar plate colony diameter. Format: cell-based. The settings on record: 10 ppm, Table 6B. As for the experimental part: (§1) Each plate was inoculated with a spore suspension or with a small piece of agar (1 mm) from the margin of an actively growing colony of the test fungus. The fungi employed are listed below. After incubation at 22° C. and 70% relative humidity during a period long enough to allow significant growth of untreated controls, the diameters of the fungus colonies were measured and scored using the following rating system: 0=free of fungal growth 1=25% of fungal growth compared to untreated 2=50% of fungal growth compared to untreated 3=75% of fungal growth compared to untreated 4=Growth equal to that of untreated The scores measured for wood preservation efficacy of the compounds of this invention are listed in Tables 6a and 6b. In these Tables, the lower numbers are the most preferred species. Coriolus versicolor

For data set [9], the system named is Coniophora puteana. The description is as above. Set-up: key: 0 = no fungal growth, 1-3 = 25/50/75% of untreated, 4 = equal. Format: cell-based. Conditions: 10 ppm, Table 6B. As for the experimental part: as §1, with “Coniophora puteana (syn. C. cerebella)” for “Coriolus versicolor”
Data set [10] concerns Chaetomium globosum. The description is as above. Format: cell-based. Conditions: 10 ppm, Table 6B. As for the experimental part:
as §1, with “Chaetomium globosum” for “Coriolus versicolor”

Data set [11] concerns Mucor sp. The data set is described as above. Type of data set: cell-based. Conditions: 100 ppm, Table 6B. As for the experimental part:
as §1, with “Mucor sp.” for “Coriolus versicolor”

Data set [12] deals with Aspergillus flavus. The description is as above. Type of data set: cell-based. Conditions: 10 ppm, Table 6B. As for the experimental part: as §1, with “Aspergillus flavus” for “Coriolus versicolor”
In data set [13] the test system is blue-stain fungi and molds. Nature of the data set: Activity against blue-stain fungi and molds in a stick test (threshold concentrations). The settings on record: beech sticks, 22° C., 90% relative humidity. As to the method: Representative compounds of this invention were dissolved in 50% ethanol. Each compound was then diluted serially using 50% ethanol. […] After three (3) hours, the solutions containing the test compounds were poured off and the treated sticks were allowed to dry in a sterile laminar air flow. Each treated stick was then placed in a Petri dish which had been previously seeded with inoculum. Two drops of a test fungal or spore suspension were pipetted onto the upper surface of each treated stick. The Petri dishes containing the treated sticks were incubated at 22° C. and 90% relative humidity. The treated sticks were evaluated after there was sufficient growth of fungus on control sticks (i.e., untreated sticks) incubated in the same manner. The following score system was used: 0: Stick free of fungal/mold growth 1: Traces of fungal growth on the stick 2: Slight growth (5 to 25% of the surface covered with fungal growth) 3: Moderate growth (25 to 50% covered with fungal growth) 4. Vigorous to maximum fungal growth (more than 50% growth) […]

Regarding `C[S+]1CCON=C1c1ccccc1` (stereo not shown) [Compound 17], the “Score of bactericidal activity, P. alcalgenes” value in data set [1] worked out at 0. For the same compound, the “Score of bactericidal activity, B. cereus mycoides” value in data set [2] (10 ppm in tryptose agar) and in data set [2] (100 ppm in tryptose agar) was 0 throughout. The “Score of bactericidal activity, P. aeruginosa” value in data set [3] stood at 0. Further, the “Score of bactericidal activity, Flavobacter” value in data set [4] (10 ppm in tryptose agar) and in [4] (100 ppm in tryptose agar) was 0 in each case. Also, the “Score of bactericidal activity, S. albus” value in data set [5] (10 ppm in tryptose agar) and in data set [5] (100 ppm in tryptose agar) was 0 in each case. The “Score of bactericidal activity, E. aerogenes” value in data set [6] (10 ppm in tryptose agar) and in [6] (100 ppm in tryptose agar) was 0 in each case. The “Score of bactericidal activity, E. Coli” value in data set [7] (10 ppm in tryptose agar) and in data set [7] (100 ppm in tryptose agar) was 0 throughout. Besides, the “Score of fungicidal activity, G. VERSICLOR” value in [8] turned out to be 4. Also, the “Score of fungicidal activity, C. PUTEANA” value in data set [9] is recorded as 4. In addition, in data set [10], the “Score of fungicidal activity, C. GLOBOSUM” value is recorded as 4. Further, the “Score of fungicidal activity, MUCOR SP” value in [11] is given as 4. Besides, the “Score of fungicidal activity, A. FLAVUS” value in data set [12] stood at 4.

The term melting point denotes the temperature, or range, at which the solid turns liquid. Take `CC1C[S+]([O-])C(c2cccs2)=NO1` (stereo not shown) [Compound 50, 5,6-dihydro-6-methyl-3-(2-thienyl)-1,4,2-oxathiazine-4-oxide]: the melting point was in the range of 114 to 115 °C. The “Threshold concentration (ppm), A. niger, score 0” value in data set [13] (A. niger, minimum concentration to obtain score 0) came to 1000 ppm. Further, the “Threshold concentration (ppm), A. niger, score 1-2” value in [13] (A. niger, minimum concentration to obtain score 1-2) is given as 250-500 ppm. Besides, the “Threshold concentration (ppm), Aureobasidium, score 0” value in [13] (Aureobasidium, minimum concentration to obtain score 0) is more than 1000 ppm. For the same compound, the “Threshold concentration (ppm), Aureobasidium, score 1-2” value in data set [13] (Aureobasidium, minimum concentration to obtain score 1-2) was 100-500 ppm. The “Threshold concentration (ppm), Sclerophoma, score 0” value in data set [13] (Sclerophoma, minimum concentration to obtain score 0) is on record as 100 ppm. Besides, the “Threshold concentration (ppm), Sclerophoma, score 1-2” value in data set [13] (Sclerophoma, minimum concentration to obtain score 1-2) is listed as 50-100 ppm. The “Threshold concentration (ppm), Trichoderma, score 0” value in [13] (Trichoderma, minimum concentration to obtain score 0) turned out to be 5000 ppm. Moreover, the “Threshold concentration (ppm), Trichoderma, score 1-2” value in data set [13] (Trichoderma, minimum concentration to obtain score 1-2) is listed as 1000-2500 ppm.

Take `CC1CSC(c2cccs2)=NO1` (stereo not shown) [Compound 52, 5,6-dihydro-6-methyl-3-(2-thienyl)-1,4,2-oxathiazine]: the melting point was in the range of 70 to 72 °C.

Take `Clc1ccc(C2=NOCCS2)s1` [Compound 59, 3-(5-chloro-2-thienyl)-5,6-dihydro-1,4,2-oxathiazine]: the melting point lay in the range of 74 to 77 °C.
